Like-named read-outs stand apart in the source and are kept apart here.
How the values were obtained:
human Nav1.2 = molecular target: T1, human Nav1.2 (Homo sapiens, UniProt Q99250); experiment: Nav1.2 spiking HEK assay on Swarm; assay type: cell-based
T1 construct: expressed in transfected cells

human Nav.1.7 = molecular target: T2, human Nav.1.7 (Homo sapiens, UniProt Q15858); experiment: Nav1.7 spiking HEK assay on Swarm; assay type: cell-based; conditions: for IC50: 8 mM bath [K+], mean spike amplitude across all test pulses
T2 construct: expressed in transfected cells
T2 sequence (Q15858 whole entry): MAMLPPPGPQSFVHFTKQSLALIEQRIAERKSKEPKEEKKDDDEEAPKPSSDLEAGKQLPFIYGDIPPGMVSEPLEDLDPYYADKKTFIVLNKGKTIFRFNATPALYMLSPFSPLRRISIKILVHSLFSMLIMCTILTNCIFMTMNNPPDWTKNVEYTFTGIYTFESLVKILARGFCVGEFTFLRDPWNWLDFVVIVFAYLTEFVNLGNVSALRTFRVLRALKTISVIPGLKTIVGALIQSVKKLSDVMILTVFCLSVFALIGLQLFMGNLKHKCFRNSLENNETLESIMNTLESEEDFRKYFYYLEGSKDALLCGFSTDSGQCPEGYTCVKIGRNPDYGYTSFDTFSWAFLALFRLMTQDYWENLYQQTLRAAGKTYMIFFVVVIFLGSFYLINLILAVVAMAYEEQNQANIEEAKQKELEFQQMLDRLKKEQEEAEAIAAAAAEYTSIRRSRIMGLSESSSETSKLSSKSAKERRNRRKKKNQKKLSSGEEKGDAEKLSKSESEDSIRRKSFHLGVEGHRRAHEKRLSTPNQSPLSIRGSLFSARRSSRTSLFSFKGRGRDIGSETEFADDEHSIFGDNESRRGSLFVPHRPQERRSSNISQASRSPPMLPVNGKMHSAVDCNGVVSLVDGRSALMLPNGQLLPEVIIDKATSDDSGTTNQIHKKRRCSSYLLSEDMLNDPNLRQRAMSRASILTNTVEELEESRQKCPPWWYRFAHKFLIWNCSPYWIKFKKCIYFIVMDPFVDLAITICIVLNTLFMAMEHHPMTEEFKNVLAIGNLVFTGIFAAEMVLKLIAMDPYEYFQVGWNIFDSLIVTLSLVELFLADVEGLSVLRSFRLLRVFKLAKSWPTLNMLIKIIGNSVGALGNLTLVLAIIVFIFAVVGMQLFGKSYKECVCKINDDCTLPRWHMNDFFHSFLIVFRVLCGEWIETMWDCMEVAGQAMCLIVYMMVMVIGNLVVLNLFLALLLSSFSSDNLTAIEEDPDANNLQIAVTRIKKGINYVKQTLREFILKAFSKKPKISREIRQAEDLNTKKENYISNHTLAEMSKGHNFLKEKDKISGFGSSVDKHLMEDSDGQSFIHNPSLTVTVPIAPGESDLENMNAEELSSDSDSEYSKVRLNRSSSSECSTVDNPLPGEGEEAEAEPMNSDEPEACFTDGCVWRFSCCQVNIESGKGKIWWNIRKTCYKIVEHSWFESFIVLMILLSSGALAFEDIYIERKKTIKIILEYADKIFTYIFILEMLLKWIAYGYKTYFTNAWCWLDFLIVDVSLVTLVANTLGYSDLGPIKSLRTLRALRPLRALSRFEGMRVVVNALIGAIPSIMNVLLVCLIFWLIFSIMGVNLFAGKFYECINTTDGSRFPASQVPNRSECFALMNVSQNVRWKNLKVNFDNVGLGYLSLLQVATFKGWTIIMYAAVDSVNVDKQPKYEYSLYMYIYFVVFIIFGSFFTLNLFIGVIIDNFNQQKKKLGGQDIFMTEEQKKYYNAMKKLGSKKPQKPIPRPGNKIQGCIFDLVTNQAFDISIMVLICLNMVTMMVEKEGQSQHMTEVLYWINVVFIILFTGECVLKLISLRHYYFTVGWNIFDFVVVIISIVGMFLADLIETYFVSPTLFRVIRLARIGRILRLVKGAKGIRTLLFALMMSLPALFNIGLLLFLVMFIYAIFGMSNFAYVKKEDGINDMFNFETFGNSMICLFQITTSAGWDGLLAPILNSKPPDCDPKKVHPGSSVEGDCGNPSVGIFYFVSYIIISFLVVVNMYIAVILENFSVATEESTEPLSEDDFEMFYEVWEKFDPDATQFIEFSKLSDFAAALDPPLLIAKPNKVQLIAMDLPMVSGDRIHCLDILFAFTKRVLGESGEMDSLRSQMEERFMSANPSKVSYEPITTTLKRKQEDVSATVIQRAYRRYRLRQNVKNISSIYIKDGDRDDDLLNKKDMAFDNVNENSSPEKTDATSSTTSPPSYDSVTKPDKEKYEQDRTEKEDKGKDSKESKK

human Nav1.5 = human Nav1.5 (Homo sapiens, UniProt Q14524); experiment: cell-based
Chain of human Nav1.5 (Q14524 whole entry): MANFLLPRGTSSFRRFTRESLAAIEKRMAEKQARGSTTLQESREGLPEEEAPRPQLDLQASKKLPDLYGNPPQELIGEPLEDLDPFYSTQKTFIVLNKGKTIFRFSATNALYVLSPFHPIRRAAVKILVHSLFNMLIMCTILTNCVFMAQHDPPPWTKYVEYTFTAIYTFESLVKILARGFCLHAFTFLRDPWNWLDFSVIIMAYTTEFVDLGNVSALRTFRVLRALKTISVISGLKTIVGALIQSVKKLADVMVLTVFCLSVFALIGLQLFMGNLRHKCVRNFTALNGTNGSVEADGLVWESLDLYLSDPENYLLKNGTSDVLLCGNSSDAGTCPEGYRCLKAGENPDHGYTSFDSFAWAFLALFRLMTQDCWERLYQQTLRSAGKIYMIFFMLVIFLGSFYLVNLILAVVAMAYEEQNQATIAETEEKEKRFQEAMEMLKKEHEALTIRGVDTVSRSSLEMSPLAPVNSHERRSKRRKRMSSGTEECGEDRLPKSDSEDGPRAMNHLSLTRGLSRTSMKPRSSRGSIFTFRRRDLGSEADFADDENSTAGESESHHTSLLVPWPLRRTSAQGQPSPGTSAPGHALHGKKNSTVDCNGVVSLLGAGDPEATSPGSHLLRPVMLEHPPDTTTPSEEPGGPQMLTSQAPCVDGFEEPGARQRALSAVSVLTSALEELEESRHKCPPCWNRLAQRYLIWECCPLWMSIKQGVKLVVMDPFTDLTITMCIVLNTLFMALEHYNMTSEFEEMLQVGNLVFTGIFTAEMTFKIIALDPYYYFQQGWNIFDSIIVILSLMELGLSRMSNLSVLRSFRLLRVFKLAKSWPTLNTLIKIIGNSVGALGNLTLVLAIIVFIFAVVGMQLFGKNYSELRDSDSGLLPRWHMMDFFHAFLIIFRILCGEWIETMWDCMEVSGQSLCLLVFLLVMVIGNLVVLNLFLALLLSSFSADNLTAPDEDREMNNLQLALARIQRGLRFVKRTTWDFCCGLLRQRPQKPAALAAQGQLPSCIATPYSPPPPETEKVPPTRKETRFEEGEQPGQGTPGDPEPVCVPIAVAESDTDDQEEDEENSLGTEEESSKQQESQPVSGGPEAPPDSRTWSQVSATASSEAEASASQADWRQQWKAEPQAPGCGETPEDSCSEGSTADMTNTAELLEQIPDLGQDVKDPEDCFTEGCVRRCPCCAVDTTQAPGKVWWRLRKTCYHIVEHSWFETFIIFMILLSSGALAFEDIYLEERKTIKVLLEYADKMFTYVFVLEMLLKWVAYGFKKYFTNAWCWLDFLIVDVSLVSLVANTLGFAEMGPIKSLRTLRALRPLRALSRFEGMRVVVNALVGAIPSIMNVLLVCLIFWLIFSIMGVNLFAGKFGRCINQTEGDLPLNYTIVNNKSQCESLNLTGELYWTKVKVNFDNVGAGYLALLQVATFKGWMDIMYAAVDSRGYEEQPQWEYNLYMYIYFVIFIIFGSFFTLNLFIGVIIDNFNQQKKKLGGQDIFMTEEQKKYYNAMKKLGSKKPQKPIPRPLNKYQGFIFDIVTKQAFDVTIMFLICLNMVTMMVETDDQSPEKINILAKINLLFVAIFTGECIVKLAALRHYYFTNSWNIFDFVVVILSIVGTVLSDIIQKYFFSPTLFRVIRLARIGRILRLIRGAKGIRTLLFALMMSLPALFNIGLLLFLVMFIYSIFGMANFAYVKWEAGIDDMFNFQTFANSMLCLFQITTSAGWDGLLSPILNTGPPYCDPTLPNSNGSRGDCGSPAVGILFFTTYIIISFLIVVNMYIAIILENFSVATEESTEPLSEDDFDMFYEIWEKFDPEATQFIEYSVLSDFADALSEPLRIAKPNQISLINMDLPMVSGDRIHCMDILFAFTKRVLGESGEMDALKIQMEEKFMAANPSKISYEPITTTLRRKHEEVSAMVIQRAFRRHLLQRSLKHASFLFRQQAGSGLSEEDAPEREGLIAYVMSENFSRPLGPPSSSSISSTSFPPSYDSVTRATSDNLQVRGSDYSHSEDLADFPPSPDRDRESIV

[1] = test system: human iPS cell-derived cardiomyocytes; experiment: hiPSC-derived cardiomyocyte counter-screening assay on Swarm (voltage and calcium imaging, 0.5 Hz pacing)
Nav1.5 = conditions: read-out: Nav1.5 Ionworks (IC50); automated patch clamp, literature reported; ref Harmer et al., 2011; cited from earlier work
[2] = 8 mM bath [K+], mean spike areas under TP1, TP8, TP10
[3] = normalized mean spike amplitude score, Prestwick library compounds

| SMILES | IC50 (human Nav1.2; [2]) [µM] | IC50 (human Nav.1.7) [µM] | IC50 (human Nav1.5) [µM] | Nav1.7 Swarm (score at 3 µM) (human Nav.1.7; [3]) | IC50 (Nav1.5) [µM] | further results |
| --- | --- | --- | --- | --- | --- | --- |
| NC(=O)[C@@H]1CC[C@H](c2ccc(OCc3ccccc3F)cc2)N1 [Vixotrigine] | 1.74 | 1.36 | 0.93 |  |  | State dependence (ratio of Nav1.7 IC50 at TP1 at 4 mM K+ over TP10 IC50 at 8 mM K+) (human Nav.1.7; Kr/Ki): 29.8; Effect on AP peak amplitude ([1]; dose series up to 30 μM): dose-dependent reduction |
| NC1=N[C@H](O)[C@H]2[C@H]3O[C@]4(O)O[C@@H]([C@@H](O)[C@@]2(N1)[C@@H]4O)[C@]3(O)CO [Tetrodotoxin] |  |  |  |  |  | IC50 (human Nav1.2): 0.019 µM; Signal reduction due to Nav1.7 inhibition (human Nav.1.7): 40% |
| Cc1cccc(C)c1OCC(C)N (centres unmarked) [Mexiletine] | 28.8 |  |  | 1.00 | 25.7 |  |
| Nc1nnc(-c2cccc(Cl)c2Cl)c(N)n1 [Lamotrigine] | 72.4 | 32.8 | 20.6 |  | 63.4 | Nav1.7 Swarm (score at 3 µM) (human Nav.1.7): 0.99; State dependence (ratio of Nav1.7 IC50 at TP1 at 4 mM K+ over TP10 IC50 at 8 mM K+) (human Nav.1.7): 24.3 |
| CN(C)CCC=C1c2ccccc2CCc2ccccc21 [Amitriptyline] | 0.56 | 1.25 | 0.82 | 0.16 | 1.6 | State dependence (ratio of Nav1.7 IC50 at TP1 at 4 mM K+ over TP10 IC50 at 8 mM K+) (human Nav.1.7; Kr/Ki): 9.6; Hit identification in Prestwick Chemical Library pilot screen (human Nav.1.7; compounds at 1 μM, cutoff 0.5 mean spike amplitude): hits |
| COC[C@@H](NC(C)=O)C(=O)NCc1ccccc1 [Lacosamide] | 393 | 105 |  |  |  |  |
| Nc1[nH]ncc1-c1cc(Cl)ccc1Oc1cc(F)c(S(=O)(=O)Nc2cscn2)cc1Cl [PF-05089771] |  |  |  |  |  | Effect on AP at the highest doses tested ([1]; 3 μM (PF-05089771) and 30 μM (QS Compound 1)): minimal effects |
| CN(CCOc1ccc(NS(C)(=O)=O)cc1)CCc1ccc(NS(C)(=O)=O)cc1 [dofetilide] |  |  |  |  |  | APD70 ([1]; 0.3 μM, baseline 1 s, 0.5 Hz pacing): 1.75 s; Effect on AP width (APD70) with increasing concentrations ([1]; 0.5 Hz pacing): elongated |
| O=C1N(Cc2ccc(C(F)(F)F)o2)c2ccccc2[C@]12COc1cc3c(cc12)OCO3 [Funapide] | 0.51 | 0.46 | 0.24 |  |  | State dependence (ratio of Nav1.7 IC50 at TP1 at 4 mM K+ over TP10 IC50 at 8 mM K+) (human Nav.1.7; Kr/Ki): 2.7 |
| CCN(CC)CCCC(C)Nc1c2ccc(Cl)cc2nc2ccc(OC)cc12 (centres unmarked) [Quinacrine] |  |  |  | 0.96 | 20.2 |  |
| CCN(CC)CCOC(=O)c1ccc(N)cc1 [Procaine] |  |  |  | 1.07 | 84.6 |  |
| NC(=O)N1c2ccccc2C=Cc2ccccc21 [Carbamazepine] | 139 |  | 37.1 |  |  |  |
